Data as given in patent publication US20110136766A1, “AURORA KINASE INHIBITORS” (Vitae Pharmaceuticals, Inc., priority 2008, published 2011).

Key:
[1] = target: T1, full-length human Aurora B/INCENP complex (Homo sapiens, UniProt Q96GD4); experiment: Aurora B phosphocellulose filter binding kinase activity assay; type: biochemical; conditions: 1.5 nM Aurora B/INCENP complex, 10 μM ATP, 50 μM Kemptide, 45 min; read-out: Aur-B IC50
T1 construct: the full-length human Aurora B (N-terminal GST fusion); GST (N); purchased Carna BioSciences, Japan
Protocol: (§1) Kinase activity of Aurora kinases was measured by phosphocellulose filter binding assay. The full-length human Aurora A carrying His6 tag at the N-terminus (Invitrogen, Carlsbad, Calif.) and the full-length human Aurora B (N-terminal GST fusion) co-expressed and co-purified with the His6-INCENP INBOX, aminoacids 803-918 (Carna BioSciences, Japan) were used as the enzyme in the assays. Tested compounds were diluted in DMSO and pre-incubated with the enzyme and ATP/Mg^2+ mixture for at least 10 minutes. The reaction was started by addition of the Kemptide peptide substrate (LRRASLG) and allowed to proceed for 45 min at room temperature. Each reaction in a final volume of 40 μl contained 50 μM Kemptide, 10 μM [γ-^33P]ATP (1 Ci/mmol) and either 11 nM Aurora A or 1.5 nM Aurora B/INCENP complex in the buffer containing 10 mM MgCl2, 5% DMSO, 20 mM MOPS, pH 7.2, 25 mM β-glycerol phosphate, 5 mM EGTA, 1 mM Na3VO4 and either 0.1 mg/ml of BSA and 1 mM DTT for Aurora A or 0.01% Triton-X100 and 2 mM DTT for Aurora B. The reaction was stopped with 25 μl of 5% H3PO4, and 45 μl of the mixture was transferred into a MultiScreen-PH filterplate (Millipore) pre-washed with 0.85% H3PO4. The filterplate was washed 4 times with 200 μl of 0.85% H3PO4 on a vacuum manifold. Scintillation fluid (50 μl of Ultima Gold™ LLT, PerkinElmer, Waltham, Mass.) was added to each well, and after 1-hr incubation at room temperature the plates were counted on MicroBeta (PerkinElmer, Waltham, Mass.) plate reader. […] Percent inhibition values were calculated based on the counts of the positive and negative controls, and these values were regressed against inhibitor concentration and fit into a four parameter model. From this fit the IC50 values (the inhibitor concentration at which 50% inhibition occurs) were derived as the inflection point on the semi-logarithm inhibition curve.

[2] = target: T2, full-length human Aurora A (Homo sapiens, UniProt O14965); experiment: Aurora A phosphocellulose filter binding kinase activity assay; type: biochemical; conditions: 11 nM Aurora A, 10 μM ATP, 50 μM Kemptide, 45 min; read-out: Aur-A IC50
T2 construct: The full-length human Aurora A carrying His6 tag at the N-terminus; His6 (N); purchased Invitrogen, Carlsbad, Calif
T2 sequence (O14965 1-403): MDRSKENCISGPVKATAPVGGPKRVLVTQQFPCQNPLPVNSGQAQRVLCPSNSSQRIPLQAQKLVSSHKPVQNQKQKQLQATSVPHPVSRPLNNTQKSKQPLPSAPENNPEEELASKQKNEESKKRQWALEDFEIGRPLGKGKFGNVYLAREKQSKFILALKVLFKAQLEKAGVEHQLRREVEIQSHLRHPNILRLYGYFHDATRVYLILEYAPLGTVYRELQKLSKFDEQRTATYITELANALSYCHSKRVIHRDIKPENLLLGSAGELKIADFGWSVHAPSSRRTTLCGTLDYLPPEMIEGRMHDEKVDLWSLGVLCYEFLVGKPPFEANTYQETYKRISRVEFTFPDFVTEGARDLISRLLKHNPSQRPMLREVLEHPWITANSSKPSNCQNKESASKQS
Protocol: as §1

Colo205 = experiment: CellTiter-Glo cell viability assay, Colo205; type: cell-based; conditions: Homo sapiens, COLO 205; Colorectal cancer; 72 hrs; 50% growth inhibition relative to control; read-out: Colo205 IC50
Text: (§2) The CellTiter-Glo® Luminescent Cell Viability Assay is a homogeneous method of determining the number of viable cells in culture based on quantitation of the ATP present, which signals the presence of metabolically active cells. The homogeneous assay procedure involves addition of a single reagent directly to cells cultured in serum-supplemented medium. The homogeneous format results in cell lysis and generation of a luminescent signal proportional to the amount of ATP present. The CellTiter-Glo® Assay relies on the properties of a proprietary thermostable luciferase (Ultra-Glo. Recombinant Luciferase), which generates a stable glow-type Luminescent signal. The half-life of the luminescent signal resulting from this reaction is greater than five hours. This extended half-life eliminates the need for reagent injectors and provides flexibility for continuous or batch-mode processing of multiple plates. The unique homogeneous format reduces pipetting errors that may be introduced during the multiple steps required by other ATP-measurement methods.
(§3) 96 Well cell culture plates were seeded with 10^3 mammalian cells (Colo205, HL-60, SW620, HCT116, MCF-7 and MV-411) in 100 μl culture medium. The cells were incubated overnight prior to initiating the assay. Control wells were prepared on a plate containing medium only to obtain a value for background luminescence.
(§4) Compounds to be tested were added to experimental wells and incubated for 72 hrs (Colo205, HL-60, MV-411), 168 hrs (HCT116, SW620) or 240 hrs (MCF-7). Wells were also set up to as vehicle controls with the addition of 0.1% DMSO. At the end of the incubation period, the plates were equilibrated to room temperature for approximately 30 minutes.
(§5) Lyophilized CellTiter-Glo® Substrate and the CellTiter-Glo® Buffer were warmed to room temperature. The CellTiter-Glo® Buffer was mixed with the CellTiter-Glo® Substrate to reconstitute the lyophilized enzyme/substrate mixture. This forms the CellTiter-Glo® Reagent. The contents were mixed by gently vortexing, swirling or by inverting the contents to obtain a homogeneous solution. 100 μl of CellTiter-Glo® Reagent was added to the cell culture medium present in each well. The contents were mixed for 2 minutes on an orbital shaker to induce cell lysis. The plates were allowed to incubate at room temperature for 10 minutes to stabilize luminescent signal. The contents of the 96 well cell culture plate were then transferred to a white 96 well Optiplate (Perkin Elmer). The luminescence was recorded on Wallac 1420 VICTOR^2 V Multilabel Platereader (An integration time of 0.25-1 second per well).
(§6) 10 mM DMSO stock Compounds were serially diluted threefold in DMSO. Subsequent dilutions made into cell culture media prior to addition to cells to maintain the DMSO concentration at or below 0.1% to avoid cell toxicity.
(§7) The IC50s in Table 2 are the concentration at which 50% growth inhibition relative to control occurs.

HCT116 = experiment: CellTiter-Glo cell viability assay, HCT116; type: cell-based; conditions: Homo sapiens, HCT-116; Colorectal cancer; 168 hrs; 50% growth inhibition relative to control; read-out: HCT116 IC50
Text: as §2, §3, §4, §5, §6, §7

T1 sequence (Q96GD4 whole entry, the tested form may be a part): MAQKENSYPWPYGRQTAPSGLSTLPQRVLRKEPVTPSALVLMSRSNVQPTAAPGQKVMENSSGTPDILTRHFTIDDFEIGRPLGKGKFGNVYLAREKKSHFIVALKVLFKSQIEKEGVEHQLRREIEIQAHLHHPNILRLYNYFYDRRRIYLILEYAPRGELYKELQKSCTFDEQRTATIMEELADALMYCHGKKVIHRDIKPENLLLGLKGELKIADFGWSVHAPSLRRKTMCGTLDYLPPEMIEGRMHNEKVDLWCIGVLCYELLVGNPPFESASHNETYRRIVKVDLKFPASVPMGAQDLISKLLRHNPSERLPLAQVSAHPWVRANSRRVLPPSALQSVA
T1 sequence (Q9NQS7 803-918 partner limits assumed): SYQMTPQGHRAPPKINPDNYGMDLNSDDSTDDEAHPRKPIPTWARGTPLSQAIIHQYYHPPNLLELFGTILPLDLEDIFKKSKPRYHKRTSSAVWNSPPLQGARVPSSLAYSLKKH

`CN1CCN(S(=O)(=O)c2ccc(-c3ccc4c(Nc5cc(CC(=O)Nc6cccc(F)c6)[nH]n5)ncnc4c3)cc2)CC1` [Compound 7, N-(3-fluorophenyl)-2-(3-(7-(4-(4-methylpiperazin-1-ylsulfonyl)phenyl)quinazolin-4-ylamino)-1H-pyrazol-5-yl)acetamide] was tested, and the IC50 [1] was 0.93 nM and the IC50 [2] was 13.9 nM.

Work on `O=C(Cc1cc(Nc2ncnc3cc(-c4ccc(C(=O)N5CCN(CCO)CC5)cc4)ccc23)n[nH]1)Nc1cc(F)cc(F)c1` [Compound 14, N-(3,5-Difluorophenyl)-2-(3-(7-(4-(4-(2-hydroxyethyl)piperazine-1-carbonyl)phenyl)quinazolin-4-ylamino)-1H-pyrazol-5-yl)acetamide] yielded an IC50 [1] of 0.83 nM, an IC50 (Colo205) of 8.11 nM and an IC50 (HCT116) of 5.75 nM. It also gave an IC50 [2] of 2.29 nM.

Compound `O=C(Cc1cc(Nc2ncnc3cc(-c4ccc(C(=O)N5CCN(CCF)CC5)cc4)ccc23)n[nH]1)Nc1cccc(F)c1` [Compound 12, 2-(3-(7-(4-(4-(2-Fluoroethyl)piperazine-1-carbonyl)phenyl)quinazolin-4-ylamino)-1H-pyrazol-5-yl)-N-(3-fluorophenyl)acetamide] has an IC50 [1] of 0.74 nM, an IC50 (Colo205) of 7.82 nM and an IC50 (HCT116) of 3.98 nM. It also gave an IC50 [2] of 2.86 nM.

Compound `O=C(Cc1cc(Nc2ncnc3cc(-c4ccc(C(=O)N5CCN(CCO)CC5)cc4)ccc23)n[nH]1)Nc1cccc(F)c1F` [Compound 15, N-(2,3-Difluorophenyl)-2-(3-(7-(4-(4-(2-hydroxyethyl)piperazine-1-carbonyl)phenyl)quinazolin-4-ylamino)-1H-pyrazol-5-yl)acetamide] has an IC50 [1] of 0.63 nM, an IC50 (Colo205) of 3.07 nM and an IC50 (HCT116) of 1.71 nM. It also gave an IC50 [2] of 1.89 nM.

`O=C(Cc1cc(Nc2ncnc3cc(-c4ccc(C(=O)N5CCN(C6CC6)CC5)cc4)ccc23)n[nH]1)Nc1cccc(F)c1` [Compound 10, 2-(3-(7-(4-(4-Cyclopropylpiperazine-1-carbonyl)phenyl)quinazolin-4-ylamino)-1H-pyrazol-5-yl)-N-(3-fluorophenyl)acetamide] showed an IC50 [1] of 1.23 nM, an IC50 (Colo205) of 5.35 nM and an IC50 (HCT116) of 1.57 nM. For the same compound, the IC50 [2] was 4.62 nM.

`C[C@@H]1CN(C(=O)c2ccc(-c3ccc4c(Nc5cc(CC(=O)Nc6cccc(F)c6)[nH]n5)ncnc4c3)cc2)C[C@H](C)N1` [Compound 11, 2-(3-(7-(4-((3S,5R)-3,5-dimethylpiperazine-1-carbonyl)phenyl)quinazolin-4-ylamino)-1H-pyrazol-5-yl)-N-(3-fluorophenyl)acetamide] was tested, and the IC50 [1] was 1.37 nM, the IC50 (Colo205) was 2.9 nM and the IC50 (HCT116) was 1.62 nM. The IC50 [2] was 6.42 nM.

Work on `O=C(Cc1cc(Nc2ncnc3cc(-c4ccc(C(=O)N5CCN(CCOP(=O)(O)O)CC5)cc4)ccc23)n[nH]1)Nc1cccc(F)c1` [Compound 13, 2-(4-(4-(4-(5-(2-(3-Fluorophenylamino)-2-oxoethyl)-1H-pyrazol-3-ylamino)quinazolin-7-yl)benzoyl)piperazin-1-yl)ethyl dihydrogen phosphate] yielded an IC50 [1] of 0.34 nM, an IC50 (Colo205) of 9.39 nM and an IC50 (HCT116) of 6.43 nM. For the same compound, the IC50 [2] was 1.91 nM.

Compound `O=C(Cc1cc(Nc2ncnc3cc(-c4ccc(C(=O)N5CCN(CC6CC6)CC5)cc4)ccc23)n[nH]1)Nc1cccc(F)c1` [Compound 9, 2-(3-(7-(4-(4-(Cyclopropylmethyl)piperazine-1-carbonyl)phenyl)quinazolin-4-ylamino)-1H-pyrazol-5-yl)-N-(3-fluorophenyl)acetamide] has an IC50 [1] of 1.88 nM, an IC50 (Colo205) of 9.88 nM and an IC50 (HCT116) of 4.38 nM. It also gave an IC50 [2] of 9.51 nM.

`O=C(Cc1cc(Nc2ncnc3ccccc23)n[nH]1)Nc1cccc(F)c1` [Compound 8, N-(3-fluorophenyl)-2-(3-(quinazolin-4-ylamino)-1H-pyrazol-5-yl)acetamide] showed an IC50 [1] of 14.9 nM and an IC50 [2] of 2480 nM.
